Results from the METLIN SMRT retention time set (Domingo-Almenara et al. 2019).

Experiment: gradient 5% acetonitrile 3 min, to 50% in 2 min, to 85% in 15 min, held 3 min, 100 µL/min
Conditions: column: Zorbax Extend-C18 2.1 x 50 mm; eluents: water / acetonitrile, 0.1% formic acid
In short: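 Using water and acetonitrile that each contained 0.1% formic acid, mixtures of ~100 pure standards were separated at 100 μL/min on a Zorbax Extend-C18 column (2.1 × 50 mm, 1.8 μm). The HPLC fed a quadrupole time-of-flight mass spectrometer working in positive and negative ionization mode, with dead and dwell volumes of 40 μL and 900 μL. Data were acquired over 3 months. Retention time was read from computationally picked adduct peaks after manual inspection of each.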

RP-LC retention time [s]	Compound
929	Cc1cccc(-c2noc(Cn3ccn(-c4ccc(Cl)cc4)c(=O)c3=O)n2)c1
827	COC(=O)C(C)NC(=O)NCc1cccn1Cc1cccc(C)c1 (stereo unspecified)
835	Cc1ccc(C(=O)N2CCC(n3nc(-c4ccsc4)ccc3=O)CC2)cc1
942	Cc1cc(C)nc(SCC(=O)Nc2ncc(Cc3ccc(Cl)cc3)s2)n1
1170	COc1cccc(-n2c(=O)c(C(=O)NCc3cccs3)c(O)c3cccnc32)c1
670	CCc1cc(C(=O)NCCN2CCOCC2)nc2cc(-c3cccs3)nn12
973	Cc1ccc(C)c(CNC(=O)C2(c3ccc(NS(C)(=O)=O)cc3)CCCCC2)c1
803	CC(C)n1nc2c(S(=O)(=O)N3CCCCC3)cccn2c1=O
595	Nc1cccc2c1CN(C1CCC(=O)NC1=O)C2=O (stereo unspecified)
814	COc1ccc(CNC2=NCCNC23CCN(S(=O)(=O)c2ccc(C(C)C)cc2)CC3)cc1
756	Cc1ccc(-n2nnnc2CN2CCN(S(=O)(=O)N(C)C)CC2)cc1
735	O=C1COc2cc(S(=O)(=O)N3CCC(C(=O)NC4CCCC4)CC3)c(Cl)cc2N1
599	COc1nn(C)cc1C(=O)N1CCc2nc(NC(=O)c3ccco3)sc2C1
897	Cc1sc2ccn(CC(C)C)c(=O)c2c1C(=O)N1CCCCCC1
788	CCc1ccc(C2=Nc3ccccc3N(CC(N)=O)C(=O)C2)cc1
811	Cc1cc(C)cc(Nc2nc(C)cc(=O)n2CC(=O)Nc2cccc(C#N)c2)c1
1170	CCc1nc(-n2cccc2)sc1C(=O)Nc1cccc(F)c1
580	CNC(=O)c1cc(C)nc2ccc(F)cc12
818	Cc1cc(NC(=O)Cn2c(=O)c3cc(C4CC4)nn3c3ncccc32)ccc1F
706	O=C(NCC1(c2cccs2)CCOCC1)c1ccsc1
918	O=C(NCCOc1ccccc1)c1ccccc1C(=O)c1ccccc1
954	CCCCOc1ccc(-c2cc3c4nn(CC(=O)NC(C)C)c(=O)n4ccn3n2)cc1
720	COc1cccc(C(=O)CC2(O)C(=O)Nc3ccc(C)cc32)c1 (stereo unspecified)
498	Fc1ccc(CN2CCN(c3cnn4c(C5CC5)nnc4c3)CC2)cc1
899	CCCS(=O)(=O)NCc1ccc2c(c1)CCN2C(=O)c1cccc(C)c1

RP-LC retention time [s]	Compound
718	O=C(NC1CCN(C(=O)c2cc(-c3cccs3)[nH]n2)CC1)c1ccccc1Cl
702	Cc1ccc(S(=O)(=O)N2CCC(CN3CCCC(C)C3)CC2)cc1F (stereo unspecified)
642	O=C(CCc1ccc2nc(-c3ccccc3)[nH]c2c1)N1CCCCCC1
765	O=C(NC(NC(=O)c1ccccc1)c1ccccc1)c1ccccc1
1060	COC(=O)c1ccc(NC(=O)C2=Cc3ccccc3OC=C2)cc1
865	Cc1c(C(=O)NC(C)C)cnn1-c1cc(-c2nc(C3CC3)no2)ccn1
569	CC(C)Oc1ccccc1CN1C[C@@H](CO)[C@H](c2ccncc2)C1
858	O=C(NCc1cccs1)c1cccc2c1CCN2C(=O)c1ccc(F)cc1
781	O=C(Nc1ccc(C(F)(F)F)cc1)N1CCCC1c1nncn1C1CCCC1 (stereo unspecified)
1000	COCCn1cc2c3c(cccc31)CN(C(=O)c1ccc(Cl)cc1)CC2
1380	Cc1ccccc1-c1nc(C2CCN(S(=O)(=O)c3ccc4c(c3)CCCC4)CC2)no1
672	CC1CCN(Cc2nc(-c3ccc(N4CCSCC4)nc3)no2)CC1
673	O=C(NCc1ccnc(N2CCSCC2)c1)Nc1ccc(F)c(Cl)c1
724	CN(C)CCC[C@@]1(c2ccc(F)cc2)OCc2cc(C#N)ccc21
1280	CCOc1ccc(-c2cc3c(=O)n(Cc4nc(-c5cccc(Br)c5)no4)ncn3n2)cc1
566	COC1C(=O)N(CC2CC2)C12CCN(C(=O)c1ccc(C)s1)CC2 (stereo unspecified)
928	CCn1c(=O)c(N2CCN(C(=O)Nc3cccc(SC)c3)CC2)nc2ccccc21
772	CC1CCN(S(=O)(=O)c2cc(-c3ccc(=O)[nH]n3)cs2)CC1
847	O=C(c1cc(F)ccc1F)N1CCN(c2cc(-c3ccc(Cl)cc3)[nH]n2)CC1
1050	Cc1ccc(CC(=O)Nc2cc(-c3ccc(C)s3)no2)cc1
801	Cc1nnc2sc(SCc3ccc(C(F)(F)F)cc3)nn2c1=O
755	Cn1cc(C(CNC(=O)Nc2cccc(Br)c2)c2cccnc2)c2ccccc21 (stereo unspecified)
687	CC(=O)N1CCCSc2ccc(S(=O)(=O)N3CCCC(CN4CCc5ccccc5C4)C3)cc21 (stereo unspecified)
818	O=C1CCCCC(Cc2ccccc2)(C(=O)Nc2ccc(F)cc2)N1 (stereo unspecified)

Further lines, the molecule ahead of its results:

Compound	RP-LC retention time [s]
CCOc1ccccc1C(=O)Nc1cccn2cnnc12	772
COc1ccc(-n2c(=O)n(C)c(=O)c3cc(C(=O)Nc4ccc(F)c(C)c4)cnc32)cc1	955
CN(C)C(=O)c1ccc2c(c1)N(CC(=O)NC1CCCCCCC1)C(=O)CS2	769
Cc1ccc(NC(=O)c2cn3c(n2)CCCC3)cc1	606
CCCCNC(=O)c1ccc2c(c1)CCCN2S(C)(=O)=O	774
CC(C)CCNC(=O)N1CC(c2nc(-c3ccccc3)no2)C2(CCOCC2)C1 (stereo unspecified)	914
Cn1cc(-c2cc3n(n2)CCC(=O)N3CC(=O)NCc2cccnc2)c2ccccc21	566
O=C(COc1ccccc1)N1CCN(S(=O)(=O)c2cc3c4c(c2)CCC(=O)N4CCC3)CC1	782
O=C(O)c1cnc(NCCc2cccs2)nc1-c1ccccn1	765
COc1ccc(-c2nc(-c3nnn(-c4ccc(F)cc4)c3C)no2)cc1OC	917
CC(C)N1CCN(Cc2nc(Cn3ccn4nc(-c5ccccc5)cc4c3=O)no2)CC1	647
CCCn1c(CCNC(=O)c2ccc(F)cc2)nc2cccnc21	651
Cc1nc(-n2cccc2)sc1C(=O)NCCn1nc(-c2ccco2)ccc1=O	710
O=C(Cc1ccc(Cl)cc1)N1CCN(C(=O)c2nnn3c2COC(c2ccccc2)C3)CC1 (stereo unspecified)	921
CCOc1ccccc1-c1noc(Cn2c(=O)n(-c3ccc(OC)cc3)c(=O)c3sccc32)n1	962
O=C(CCc1cccc2[nH]ccc12)N1CCN(c2cccc(Cl)c2)CC1	980
O=C(c1ccc(Cl)cc1)N1CCc2cc(CNS(=O)(=O)Cc3ccccc3)ccc21	981
COCCOCc1nc(C2CCN(S(=O)(=O)c3cc(F)ccc3F)C2)no1 (stereo unspecified)	817
O=C(NCc1ccccn1)C(=O)c1cn(CC(=O)N2CCOCC2)c2ccccc12	614
CCOC(=O)c1nc(N2CCOCC2)c2ccccc2n1	626
CC(C)n1cnc(S(=O)(=O)N2CCC(C(=O)NCc3ccc(Br)cc3)CC2)c1	782

Compound	RP-LC retention time [s]
Cc1sc(NC(=O)c2cccnc2)nc1-c1ccc2c(c1)NC(=O)C(C)O2 (stereo unspecified)	718
O=C(Cn1c(N2CCCCC2)nc2ccccc2c1=O)NCc1ccc(Cl)cc1	946
CCC1Oc2ccc(C)cc2N(CC(=O)NCCN2CCc3ccccc3C2)C1=O (stereo unspecified)	698
Cc1ccc(CN2CCC3(CC2)CC(O)(c2ccccn2)CCO3)nc1 (stereo unspecified)	539
O=C(c1cccc2ccccc12)N1CCN(c2ccc(Nc3ccncc3)nn2)CC1	554
Fc1ccc(Nc2nc(-c3ccccc3)cs2)cc1	1120
CCN1CCn2cc(S(=O)(=O)Nc3ccc(Cl)cc3)cc2C1=O	766
CN(CC1CCOCC1)C(=O)Nc1ccccc1Cl	763
O=C(NCCN1CCc2ccccc2C1)c1cccc(N2CCNC(c3ccccc3)C2)n1 (stereo unspecified)	576
CCOc1ccc(NC(=O)c2cnc3c(c2)c(=O)n(C)c(=O)n3-c2ccc(OC)cc2)cc1	901
CCOCC(=O)N1CC(c2nc(-c3ccc(F)cc3)no2)C2(CCOCC2)C1 (stereo unspecified)	771
O=C(NCc1ccccc1Cl)C1CCN(S(=O)(=O)c2cc(C(=O)N3CCCC3)cs2)CC1	815
O=C(c1ccsc1)N1CCC(N(C(=O)C2CC2)C2CCOCC2)CC1	662
CCCC(=O)NCc1c(-c2ccccc2)nc2n1CCS2	604
CN1C(=O)c2cc(C(=O)NCc3ccccc3)nn2CC1(C)C(=O)NC1CCCCC1 (stereo unspecified)	761
COc1ccc(CSc2nccc3c2ccn3CC(=O)NCc2ccc(C)o2)cc1	725
CCOc1ccc2c(n1)CCN(C(=O)Nc1cc(C)ccc1C)C2	862
CCn1ccc2cc(S(=O)(=O)N3CCC(C(=O)NCCCN4CCCCC4C)CC3)ccc21 (stereo unspecified)	665
CC(C)CCSc1nnc2c(S(=O)(=O)N3CCN(c4ccc(F)cc4)CC3)cccn12	1060
O=C(OCc1cc(-c2ccccc2)on1)c1ccc[nH]c1=O	656
Cc1cc(C)n(CCNC(=O)C2(c3cccs3)CCCC2)n1	736
